Data taken from patent publication US9161939B2, “Pyrrolo[2,3-d]pyrimidine compounds” (Zoetis LLC, priority 2008, dated 2015).
pIC50: −log10 of the molar value.

Experiments:
[1] = tested on: flea-associated pruritus and dermatitis in flea allergic dogs; experiment: Reducing Flea-Associated Pruritus and Dermatitis Assay; assay type: in vivo; conditions: for pruritus as compared to placebo (seconds of pruritus per 4 hour recording): 10% level of significance
Experimental: Twenty eight male and female dogs of mixed breeds ranging in weight from 5-35 kg and greater than one year of age were infested with approximately 100 unfed adult cat fleas (Ctenocephalides felis) 14 days prior to the start of dosing and reinfested with 30 fleas per dog every 4 days throughout the study. Seven days before dosing, twenty four dogs were randomized into three different treatment groups, placebo, 0.5 mg/kg or 0.25 mg/kg of the compound of Example 1b, based on visual analog scale (VAS) scores for skin lesions. Treatments were given orally twice a day for 28 days, and pruritic behavior as well as erythema and skin lesions were was assessed during the study. Pruritic behavior was recorded by placing dogs into pens with video recording capability, and recording their activity over 4 hours. Pruritic activity was quantitated by determining how many seconds the dogs spent scratching. Skin lesions were recorded by image capture of abdominal, inguinal region and the severity ranked according to a visual analog scale (VAS).
Video captured elapsed time of pruritic behavior was analyzed using a mixed linear model for repeated measures. The model included fixed effects of treatment and day of study and the interaction of treatment and day of study. Random effects included block, the interaction of block and treatment and error. Baseline data for pruritic behavior (day −1) were used as covariate in the analysis of pruritic behavior. Least squares means were used as estimates of treatment means. Standard errors of least squares means were estimated and 90% confidence intervals were constructed. Geometric means were computed from the least squares means for log-transformed data. A priori contrasts were used to assess treatment. Treatment differences were assessed at the 10% level of significance (P≦0.10).

Recombinant JAK-3 = Recombinant JAK-3 (Homo sapiens (Human), UniProt P52333); experiment: JAK Enzymatic Assay (peptide mobility shift), JAK-3; assay type: biochemical; conditions: ATP 4 micromolar, JAKtide, 90 minutes
Experimental: (§4) Materials: Recombinant JAK-2 (Catalog Number PV4210) and JAK-3 (Catalog Number PV3855) were purchased from (Invitrogen Corporation, Madison, Wis.). Recombinant JAK-1 (GST-JAK-1 (852-1142)) and Tyk-2 (GST-Tyk2 (870-1187, C1187S)) used in this study were expressed and purified at Pfizer Laboratories. Adenosine 5′-triphosphate (ATP) was obtained from Sigma Chemical Company, St. Louis, Mo. […] Coating Reagent 3 was purchased from (Caliper Life Sciences, Hopkinton, Mass.).
(§5) Reactions were carried out in a 384-well plate (Matrical MP-101) in a 10 microliter total volume. Reaction mixtures contained 20 mM HEPES, pH 7.4, 10 mM magnesium chloride, 0.01% bovine serum albumin (BSA), 0.0005% Tween-20, ATP (4 micromolar for JAK-2 and JAK-3, 40 micromolar for JAK-1 and 7 micromolar for Tyk-2)), 2% DMSO and 1 micromolar peptide substrate (JAKtide for JAK-2 and JAK-3 or IRS-1 peptide for JAK-1 and Tyk-2). Compounds were diluted serially in 100% dimethyl sulfoxide and tested in an 11 point dose response in duplicate or quadruplicate (200 nl of compound/DMSO was added per 10 microliter reaction). […] Data was analyzed using Hits Well Analyzer Software from (Caliper Life Sciences) to obtain the amount of product formed.
(§6) Data was then imported into an internal application where each data point was expressed as % inhibition based on uninhibited and no enzyme controls. […]

[2] = tested on: T-cell proliferation in canine whole blood (ConA + canine IL-2); experiment: Canine In Vitro T-Cell Proliferation Assay; assay type: cell-based; conditions: Canis lupus familiaris, tritiated thymidine
Experimental: Methods: Canine whole blood was collected in sodium heparin tubes from 29 beagle dogs and 23 mixed breed dogs. Whole blood (20 μL) was plated in 96-well plates (Costar 3598) with 180 μL of medium (RPMI 1640, Gibco #21870-076, with 1% heat inactivated fetal bovine serum, Gibco #10082-39, 292 μg/ml L-glutamine, Gibco #250030-081, 100 u/ml penicillin and 100 μg streptomycin per ml, Gibco #15140-122) containing vehicle control or test compound (0.001 to 10 μM), concanavalin A (ConA; 1 μg/ml, Sigma C5275), and canine interleukin-2 (IL-2; 50 ng/ml, R&D Systems 1815-CL/CF). Wells containing whole blood, medium with vehicle control and no ConA or IL-2 were used as background controls. Plates were incubated at 37° C. for 48 hours. Tritiated thymidine, 0.4 μCi/well (Perkin Elmer, Net027A-005MC), was added for 20 additional hours. Plates were frozen and then thawed, washed and filtered using a Brandel MLR-96 cell harvester and prewet filter mats (Wallac 1205-401, Perkin Elmer). Filters were dried at 60° C. for one hour (Precision 16EG convection oven) and placed into filter sample bags (Wallac 1205-411, Perkin Elmer) with 10 mL of scintillant (Wallac 1205-440, Perkin Elmer). Sealed filters were counted on a LKB Wallac 1205 Betaplate liquid scintillation counter. Data were collected via Gterm Betaplate program v1.1 (Wallac copyright 1989-1990) and transformed into percent inhibition, calculated using the following formula: […]

Recombinant JAK-2 = Recombinant JAK-2 (Homo sapiens (Human), UniProt O60674); conditions: read-out: JAK-2 IC50; ATP 4 micromolar, JAKtide, 150 minutes
Experimental: as §4, §5, §6

[3] = target: Recombinant JAK-1 (GST-JAK-1 (852-1142)) (Homo sapiens (Human), UniProt P23458); experiment: JAK Enzymatic Assay (peptide mobility shift), JAK-1; assay type: biochemical; conditions: ATP 40 micromolar, IRS-1 peptide, 240 minutes
Experimental: as §4, §5, §6

[4] = tested on: MSU LN 11 De novo B-cell lymphoma lymph node cells; experiment: Cell Proliferation Inhibitory Assay, ex vivo canine lymphoma nodal tissue MSU LN 11; assay type: cell-based; conditions: Canis lupus familiaris; Canine MSU LN 11, De novo B-cell lymphoma; LPS + ConA
Experimental: (§1) Malignant lymph nodes were excised by veterinary staff at Michigan State University (MSU) Veterinary College, placed into transport media (Advanced RPMI 1640 complete medium supplemented with 10% Fetal Bovine Serum (FBS), 100 U/mL penicillin, 100 ug/mL streptomycin and 0.25 ug/mL Amphotercin B (Invitrogen/Gibco®). Nodes were processed within 24 hours of removal by mincing into tiny pieces and passing through a tissue sieve. Cell suspensions were spun at 200×g, supernatant was removed, and the cell pellet was resuspended in NH4Cl for 10 minutes at room temperature. The cell suspension was pelleted by centrifugation; the NH4Cl was removed and washed once with Hanks Balanced Salt Solution (HBSS), followed by re-suspension in Proliferation Medium (Advanced RPMI complete, 1% FBS, […] 2-Mercaptoethanol, 100 U/mL penicillin, 100 ug/mL streptomycin and 0.25 ug/mL Amphotercin B). The cell suspension was then passed through a 100 μm nylon cell strainer (BD-Falcon) and counted using a hemacytometer. Cells were cultured in either Proliferation Medium alone, Proliferation Medium supplemented with 0.005% Pansorbin® (Heat inactivated, formalin-fixed Staphylococcus Aureus cells (SAC), Calbiochem), and 10 ng/mL canine IL-2 (R&D Systems), or Proliferation Medium supplemented with 125 ng/mL concavalin A (Sigma) and 125 ng/mL lipopolysaccarride (LPS; Calbiochem). […]

[5] = tested on: MYA-1 feline T-lymphoblast cell line; experiment: Cell Proliferation Inhibitory Assay, MYA-1; assay type: cell-based; conditions: Felis catus; Feline MYA-1 lymphoid line (IL-2 dependent); MTS
Experimental: (§2) Feline Cell Lines The MYA-1 and FETJ are feline T-lymphoblast cell lines obtained from ATCC (Manassas, Va.). These cells were cultured in RPMI 1640 complete media supplemented with 10% FBS at 37° C. in a humidified incubator with 5% CO2.
(§3) Cells cultured in medium described above were plated in 96-well Costar plates (Corning) at a density of 1×10^3 cells/well (feline cell lines) or 2×10^5 cells/well (lymph node cells) and exposed to various concentrations of test compounds for up to 5 days at 37° C. in a humidified incubator with 5% CO2. Effects on proliferation were determined using the CellTiter 96® AQueous Non-Radioactive Cell Proliferation Assay (Promega) according to manufacturer's instructions. In general, proliferation was indirectly measured using a soluble tetrazolium salt (MTS) and an electron coupling agent. MTS bioreduction into a formazan product soluble in tissue culture medium was monitored by absorbance at 490 nm on a Spectramax plate reader using Softmax Pro 4.6 software (Molecular Devices).

[6] = tested on: MSU LN 8 De novo T-cell lymphoma lymph node cells; experiment: Cell Proliferation Inhibitory Assay, ex vivo canine lymphoma nodal tissue MSU LN 8; assay type: cell-based; conditions: Canis lupus familiaris, Canine MSU LN 8, De novo T-cell lymphoma
Experimental: as §1

[7] = tested on: MSU LN 10 Chemotherapy resistant B-cell lymphoma lymph node cells; experiment: Cell Proliferation Inhibitory Assay, ex vivo canine lymphoma nodal tissue MSU LN 10; assay type: cell-based; conditions: Canis lupus familiaris; Canine MSU LN 10, Chemotherapy resistant B-cell lymphoma; LPS + ConA
Experimental: as §1

[8] = tested on: MSU LN 9 De novo B-cell lymphoma lymph node cells; experiment: Cell Proliferation Inhibitory Assay, ex vivo canine lymphoma nodal tissue MSU LN 9; assay type: cell-based; conditions: Canis lupus familiaris, Canine MSU LN 9, De novo B-cell lymphoma
Experimental: as §1

[9] = tested on: FETJ feline T-lymphoblast cell line; experiment: Cell Proliferation Inhibitory Assay, FETJ; assay type: cell-based; conditions: Felis catus; Feline FETj lymphoid line (IL-2 independent); MTS
Experimental: as §2, §3

Sequence of Recombinant JAK-1 (GST-JAK-1 (852-1142)) (P23458 852-1142): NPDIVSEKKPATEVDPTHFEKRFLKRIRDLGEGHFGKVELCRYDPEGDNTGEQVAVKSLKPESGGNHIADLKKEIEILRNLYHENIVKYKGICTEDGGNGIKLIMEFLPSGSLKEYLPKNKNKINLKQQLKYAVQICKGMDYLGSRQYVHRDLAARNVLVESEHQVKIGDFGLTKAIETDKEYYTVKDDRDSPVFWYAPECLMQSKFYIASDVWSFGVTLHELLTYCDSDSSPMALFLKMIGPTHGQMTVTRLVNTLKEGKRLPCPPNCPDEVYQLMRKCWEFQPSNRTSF
Sequence of Recombinant JAK-3 (P52333 781-1124): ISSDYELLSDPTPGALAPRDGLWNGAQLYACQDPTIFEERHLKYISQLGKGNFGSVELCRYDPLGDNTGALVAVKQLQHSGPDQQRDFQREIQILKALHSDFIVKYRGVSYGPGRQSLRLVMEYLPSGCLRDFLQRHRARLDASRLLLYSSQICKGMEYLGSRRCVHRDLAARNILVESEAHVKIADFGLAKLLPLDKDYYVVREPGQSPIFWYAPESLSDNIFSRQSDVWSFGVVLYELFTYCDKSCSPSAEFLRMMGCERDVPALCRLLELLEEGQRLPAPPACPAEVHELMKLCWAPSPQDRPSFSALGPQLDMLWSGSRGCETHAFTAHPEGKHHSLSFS
Sequence of Recombinant JAK-2 (O60674 808-1132): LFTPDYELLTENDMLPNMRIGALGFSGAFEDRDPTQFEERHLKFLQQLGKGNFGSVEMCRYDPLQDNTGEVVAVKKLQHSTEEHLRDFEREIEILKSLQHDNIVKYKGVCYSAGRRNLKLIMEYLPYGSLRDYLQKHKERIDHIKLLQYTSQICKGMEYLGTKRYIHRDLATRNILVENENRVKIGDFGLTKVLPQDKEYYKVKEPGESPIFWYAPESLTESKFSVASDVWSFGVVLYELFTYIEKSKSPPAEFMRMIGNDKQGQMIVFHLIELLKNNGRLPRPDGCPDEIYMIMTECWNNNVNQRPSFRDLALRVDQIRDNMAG

Question: How did the “pruritus as compared to placebo (seconds of pruritus per 4 hour recording)” value ([1]; 0.25 mg/kg orally twice a day, days 1, 4 and 12) turn out when `CNS(=O)(=O)C[C@H]1CC[C@H](N(C)c2ncnc3[nH]ccc23)CC1.O=C(O)/C=C\C(=O)O` [Example 1b, N-methyl-1-{trans-4-[methyl(7H-pyrrolo[2,3-d]pyrimidin-4-yl)amino]cyclohexyl}methanesulfonamide maleic acid salt] was run?
Answer: Significant reductions

Question: What about the “Lesions and erythema (VAS scores)” value ([1]; 0.5 mg/kg orally twice a day for 28 days, flea allergic dogs, Day 27 VAS) of the same molecule?
Answer: significantly reduced

Question: And the “pruritus as compared to placebo (seconds of pruritus per 4 hour recording)” value ([1]; 0.5 mg/kg orally twice a day, days 1 and 20)?
Answer: Significant reductions

Question: With `CN(c1ncnc2[nH]ccc12)[C@H]1CC[C@H](CS(=O)(=O)NC2CCC2)CC1` [Example 2, N-cyclobutyl-1-{trans-4-[methyl(7H-pyrrolo[2,3-d]pyrimidin-4-yl)amino]cyclohexyl}methanesulfonamide] as the molecule, how does the pIC50 (Recombinant JAK-3) read?
Answer: 6.13

Question: And the pIC50 ([2]; whole blood from beagles)?
Answer: 6.39

Question: And the pIC50 (Recombinant JAK-2)?
Answer: 7.00

Question: What about the pIC50 [3] of the same molecule?
Answer: 7.35

Question: Which results are given for `CNS(=O)(=O)C[C@H]1CC[C@H](N(C)c2ncnc3[nH]ccc23)CC1` [Example 1a, N-methyl-1-{trans-4-[methyl(7H-pyrrolo[2,3-d]pyrimidin-4-yl)amino]cyclohexyl}methanesulfonamide]?
Answer: IC50 [4]: 64 nM; IC50 [5]: 122 nM; pIC50 (Recombinant JAK-3): 7.02; pIC50 ([2]; whole blood from beagles): 7.18; pIC50 ([2]; whole blood from mixed breed dogs): 6.86; IC50 ([6]; LPS + ConA): 357 nM; IC50 ([6]; SAC + IL-2): 38 nM; IC50 [7]: 687 nM; IC50 ([8]; LPS + ConA): 147 nM; IC50 ([8]; SAC + IL-2): 100 nM; IC50 [9]: > 1000 nM; pIC50 (Recombinant JAK-2): 7.76; pIC50 [3]: 8.02

Question: `CCNS(=O)(=O)C[C@H]1CC[C@H](N(C)c2ncnc3[nH]ccc23)CC1` [Example 3, N-ethyl-1-{trans-4-[methyl(7H-pyrrolo[2,3-d]pyrimidin-4-yl)amino]cyclohexyl}methanesulfonamide] was tested. Which pIC50 ([2]; whole blood from beagles) did it give?
Answer: 7.08
